Reference: patent publication US11028102B2, “Methods of using 1-O-acetylbritannilatone spiro aryl isoxazoline compounds” (priority 2017, dated 2021)

Experiments:
BMMCs = test: MTT assay, inhibition of the growth of BMMCs (cell toxicity); type: cell-based; conditions: 10 μM
Description: (§1) (1) Experimental Animal: a 6-week-old female Balb/C mouse without specific pathogens.
(§2) (2) Extraction Process: the mouse was sacrificed by cervical dislocation. After confirming the death of the mouse, it was immersed in alcohol for 3-5 minutes. The back skin of the mouse was cut with tweezers and scissors on a clean bench. The spleen was removed and placed in a filter. The filter was placed in a petri dish containing serum-free medium. The spleen was grounded into a cell suspension having a cell concentration of 2×10^6 cells/mL. […] of lectins was added, and cell suspension was then cultured in RPMI1640 medium for 5 days. The supernatant was collected. The femur bone of the mouse was removed, and joints of the bone was cut. The bone marrow was washed into a centrifuging tube by using serum-free medium. The bone marrow containing medium was then centrifuged, and the supernatant was discarded and the pellet was red bone marrow.
(§3) (3) Cell Culture: The cells were cultured for 4 weeks with RPMI1640, 10% Gibco FBS, 20% spleen supernatant, 1% AEPS, 1% MEM, and 1% double antibody.
(1) Preparation of MTT Solution: 5 mg/mL MTT solution was prepared by weighing an amount of MTT ((2-(4,5-dimethyl-2-thiazolyl)-3,5-diphenyl-2H-[…]) and dissolving MMT in PBS (solvent), and the solution was then filtered using a 0.22 μm microporous membrane. The solution was light yellow and stored at −20° C.
(2) Method: BMMCs were seeded in 96-well plates at a density of 2×10^5/mL at 100 μL per well, and the compounds of different concentrations were added. 100 μL culture medium and 100 μL PBS were used as blank control. After 7 hours, 20 μL MMT (5 mg/mL) was added to each well. The plates were then placed in an incubator (5% CO2, 37° C.) for 4 hours. After the reaction was complete, the supernatant was discarded, and 150 μL of DMSO was added to each well. After mixing, the absorbance (OD value) was measured at 490 nm using a microplate reader. Cell Viability=(ODcompounds−ODculture medium)/(ODPBS−ODculture medium)×100%

[1] = test system: Leukotriene C4 (LTC4) production in mouse bone marrow-derived mast cells (BMMCs); test: Inhibition of LTC4 production/release by IgE/DNP-HSA-stimulated BMMCs (ELISA); type: cell-based; conditions: 10 μM
Description: as §1, §2, §3
Principle: This experiment is based on the competitive binding of LTC4 to the LTC4-acetylcholinesterase conjugate (LTC4 tracer) to determine the amount of […]. Because the concentration of the LTC4 tracer is constant and the concentration of LTC4 is varied, the amount of LTC4 tracer bound to the LTC4 antiserum is inversely proportional to the amount of LTC4. The antibody-LTC4 complex binds to the murine monoclonal anti-rabbit IgG, while the murine monoclonal anti-rabbit IgG has previously been conjugated to the kit. After the reaction system was stabilized, the unbound reagent was washed away. Ellman's reagent (a […]) was added. […] The color depth was measured by the spectrophotometric method, and is proportional to the amount of LTC4 tracer, which is inversely proportional to the amount of LTC4.
(a) Sample Preparation: culturing mature BMMCs, adding IgE overnight, washing with PBS three times, and then spreading in 96-well plates (1×10^6 cells/well). The test compound solutions were added to plates and the plates were incubated for 1-1.5 hours, stimulating with DNP-HSA for 15 min. The solutions were then centrifuged at 3000 rpm for 3 min at 4° C., and the supernatant was collected and diluted 5-fold with RPMI 1640 to obtain sample solution.
(b) ELISA Kit Reaction: Adding reagents according to the kit instructions, reacting at 4° C. for 18 h, and washing with washing buffer. 200 μL of Ellman's reagent was added to each well, reacting for 40 min.
(c) Measurement of Absorbance: The absorbance was measured at 405 nm.

Structure (SMILES) | Cell Toxicity (%) (BMMCs) | Inhabitation Rate (%) [1] [%]
CC(=O)OCCCC(C)C1=C(C)CC2OC(=O)C3(CC(c4ccc([N+](=O)[O-])cc4)=NO3)C2C1O (centres unmarked) [Compound 2h] | 20.64 | 87.14
COc1ccc(C2=NOC3(C2)C(=O)OC2CC(C)=C(C(C)CCCOC(C)=O)C(OC(C)=O)C23)cc1 (centres unmarked) [Compound 3g] | 11.12 | 93.19
CC(=O)OCCCC(C)C1=C(C)CC2OC(=O)C3(CC(c4ccc(Br)cc4)=NO3)C2C1=O (centres unmarked) [Compound 4d] | −4.59 | 97.77
CC(=O)OCCCC(C)C1=C(C)CC2OC(=O)C3(CC(c4ccncc4)=NO3)C2C1OC(C)=O (centres unmarked) [Compound 3i] | 9.58 | 88.7
CC(=O)OCCCC(C)C1=C(C)CC2OC(=O)C3(CC(c4ccc(O)cc4)=NO3)C2C1O (centres unmarked) [Compound 2j] | −0.9 | 74.36
C=C1C(=O)O[C@@H]2CC(C)=C([C@@H](C)CCCOC(C)=O)[C@H](O)[C@H]12 [ABL, 1-O-acetylbritannilatone] | 1.15 | 35.21
COc1ccc(C2=NOC3(C2)C(=O)OC2CC(C)=C(C(C)CCCOC(C)=O)C(O)C23)cc1 (centres unmarked) [Compound 2g] | 7.37 | 0.91
CC(=O)OCCCC(C)C1=C(C)CC2OC(=O)C3(CC(c4ccc([N+](=O)[O-])cc4)=NO3)C2C1=O (centres unmarked) [Compound 4h] | 5.65 | 92.79
CC(=O)OCCCC(C)C1=C(C)CC2OC(=O)C3(CC(c4ccc(C#N)cc4)=NO3)C2C1OC(C)=O (centres unmarked) [Compound 3e] | 0.25 | 93.95
CC(=O)OCCCC(C)C1=C(C)CC2OC(=O)C3(CC(c4ccc(Cl)cc4)=NO3)C2C1OC(C)=O (centres unmarked) [Compound 3c] | −6.22 | 70.16
CC(=O)OCCCC(C)C1=C(C)CC2OC(=O)C3(CC(c4ccccc4)=NO3)C2C1O (centres unmarked) [Compound 2a] | 5.98 | 69.36
CC(=O)OCCCC(C)C1=C(C)CC2OC(=O)C3(CC(c4ccncc4)=NO3)C2C1=O (centres unmarked) [Compound 4i] | 9.09 | 83.53
CC(=O)OCCCC(C)C1=C(C)CC2OC(=O)C3(CC(c4ccccc4)=NO3)C2C1OC(C)=O (centres unmarked) [Compound 3a] | 5.98 | 79.15
CC(=O)OCCCC(C)C1=C(C)CC2OC(=O)C3(CC(c4ccncc4)=NO3)C2C1O (centres unmarked) [Compound 2i] | 4.26 | 84.84
C=C1C(=O)OC2CC(C)=C(C(C)CCCOC(C)=O)C(OC(C)=O)C12 (centres unmarked) [OABL, 1,6-O,O-diacetylbritannilatone, reference compound] | 3.46 | 53.24
CC(=O)OCCCC(C)C1=C(C)CC2OC(=O)C3(CC(c4ccccc4)=NO3)C2C1=O (centres unmarked) [Compound 4a] | 0.16 | 21.93

Structure (SMILES) | Cell Toxicity (%) (BMMCs) | Inhabitation Rate (%) [1] [%]
CC(=O)OCCCC(C)C1=C(C)CC2OC(=O)C3(CC(c4ccc(C)cc4)=NO3)C2C1=O (centres unmarked) [Compound 4f] | −0.66 | 28.77
CC(=O)OCCCC(C)C1=C(C)CC2OC(=O)C3(CC(c4ccc(F)cc4)=NO3)C2C1=O (centres unmarked) [Compound 4b] | −8.44 | 32
CC(=O)OCCCC(C)C1=C(C)CC2OC(=O)C3(CC(c4ccc(Cl)cc4)=NO3)C2C1O (centres unmarked) [Compound 2c] | 1.88 | 67.43
CC(=O)OCCCC(C)C1=C(C)CC2OC(=O)C3(CC(c4ccc(C)cc4)=NO3)C2C1OC(C)=O (centres unmarked) [Compound 3f] | 4.1 | −23.48
CC(=O)OCCCC(C)C1=C(C)CC2OC(=O)C3(CC(c4ccc(F)cc4)=NO3)C2C1O (centres unmarked) [Compound 2b] | 1.47 | 77.46
CC(=O)OCCCC(C)C1=C(C)CC2OC(=O)C3(CC(c4ccc(C#N)cc4)=NO3)C2C1=O (centres unmarked) [Compound 4e] | 3.19 | 88.22
CC(=O)OCCCC(C)C1=C(C)CC2OC(=O)C3(CC(c4ccc(Br)cc4)=NO3)C2C1OC(C)=O (centres unmarked) [Compound 3d] | 9.58 | 89.94
CC(=O)OCCCC(C)C1=C(C)CC2OC(=O)C3(CC(c4ccc(C)cc4)=NO3)C2C1O (centres unmarked) [Compound 2f] | −1.06 | −32.88
CC(=O)OCCCC(C)C1=C(C)CC2OC(=O)C3(CC(c4ccc(C#N)cc4)=NO3)C2C1O (centres unmarked) [Compound 2e] | −0.66 | 85.49
COc1ccc(C2=NOC3(C2)C(=O)OC2CC(C)=C(C(C)CCCOC(C)=O)C(=O)C23)cc1 (centres unmarked) [Compound 4g] | 5.81 | 53.28
CC(=O)OCCCC(C)C1=C(C)CC2OC(=O)C3(CC(c4ccc(O)cc4)=NO3)C2C1OC(C)=O (centres unmarked) [Compound 3j] | 21.95 | 88.7
CC(=O)OCCCC(C)C1=C(C)CC2OC(=O)C3(CC(c4ccc(F)cc4)=NO3)C2C1OC(C)=O (centres unmarked) [Compound 3b] | −1.97 | 89.01
CC(=O)OCCCC(C)C1=C(C)CC2OC(=O)C3(CC(c4ccc([N+](=O)[O-])cc4)=NO3)C2C1OC(C)=O (centres unmarked) [Compound 3h] | 6.63 | 84.4
CC(=O)OCCCC(C)C1=C(C)CC2OC(=O)C3(CC(c4ccc(Cl)cc4)=NO3)C2C1=O (centres unmarked) [Compound 4c] | 2.95 | 84.4
CC(=O)OCCCC(C)C1=C(C)CC2OC(=O)C3(CC(c4ccc(Br)cc4)=NO3)C2C1O (centres unmarked) [Compound 2d] | 1.06 | 50.4
